Laboratory results: publication PMC4011036, “Higher Desolvation Energy Reduces Molecular Recognition in Multi-Drug Resistant HIV-1 Protease” (Biology, 2012)

Tests used:
HIV-1 protease MDR 3761 = biological target: T1, HIV-1 protease MDR 3761 (Human immunodeficiency virus type 1 group M subtype B, UniProt P12497, A559I/G561T/I503V/I552V/I572V/I581L/K508I/L498I/L507I/L551P/L578M/M534I/P567S/Q495K/T500A); assay: HIV-1 protease inhibition (FRET substrate cleavage), MDR 3761; type: biochemical; details: FRET substrate I, 0.1 M sodium acetate, 1.0 M NaCl, 1.0 mM EDTA, 1.0 mM DTT, 10% DMSO, 1 mg/mL BSA, pH 4.7, fluorescence 340/490 nm, read-out: IC50 of HIV-1 protease inhibitors
T1 construct: made in house; host or cells: E. coli (pET21b)
Protocol: (§1) The HIV-1 protease reaction buffer was 0.1 M sodium acetate, 1.0 M sodium chloride, 1.0 mM ethylenediaminetetraacetic acid (EDTA), 1.0 mM DTT, 10% dimethylsulfoxide (DMSO), and 1 mg/mL bovine serum albumin (BSA) at pH 4.7. The protease concentration was adjusted to a substrate cleavage velocity of 5 Relative Fluorescence Units (RFU)/min in the absence of regular substrate. […] Upon the addition of the HIV-1 protease, the fluorescent signal emitted through the cleavage of the FRET substrate was recorded using SpectraMax M5 (Molecular Devices, Sunnyvale, CA, USA) at an excitation wavelength of 340 nm and an emission wavelength of 490 nm. The average velocity of FRET substrate cleavage in RFU/min was calculated based on fluorescent signal at 30 time point over 30 min.

HIV-1 protease NL4-3 = biological target: T2, HIV-1 protease NL4-3 (Human immunodeficiency virus type 1 group M subtype B, UniProt P12497, Q495K); assay: HIV-1 protease inhibition (FRET substrate cleavage), NL4-3 (WT); type: biochemical; details: FRET substrate I, 0.1 M sodium acetate, 1.0 M NaCl, 1.0 mM EDTA, 1.0 mM DTT, 10% DMSO, 1 mg/mL BSA, pH 4.7, fluorescence 340/490 nm, read-out: IC50 of HIV-1 protease inhibitors
T2 construct: made in house; host or cells: E. coli (pET21b)
Protocol: as §1

HIV-1 protease MDR 1385 = biological target: T3, HIV-1 protease MDR 1385 (Human immunodeficiency virus type 1 group M subtype B, UniProt P12497, A559V/I581L/L498F/L551P/L577M/L578M/M524I/M534I/N525D/Q495K/R545K/V570T); assay: HIV-1 protease inhibition (FRET substrate cleavage), MDR 1385; type: biochemical; details: FRET substrate I, 0.1 M sodium acetate, 1.0 M NaCl, 1.0 mM EDTA, 1.0 mM DTT, 10% DMSO, 1 mg/mL BSA, pH 4.7, fluorescence 340/490 nm, read-out: IC50 of HIV-1 protease inhibitors
T3 construct: made in house; host or cells: E. coli (pET21b)
Protocol: as §1

HIV-1 protease MDR 807 = biological target: T4, HIV-1 protease MDR 807 (Human immunodeficiency virus type 1 group M subtype B, UniProt P12497, A559V/G536V/I542T/I550V/I581L/L498I/L551Q/M534I/Q495K/Q549N/R529K/T562A/V565I/V570A); assay: HIV-1 protease inhibition (FRET substrate cleavage), MDR 807; type: biochemical; details: FRET substrate I, 0.1 M sodium acetate, 1.0 M NaCl, 1.0 mM EDTA, 1.0 mM DTT, 10% DMSO, 1 mg/mL BSA, pH 4.7, fluorescence 340/490 nm, read-out: IC50 of HIV-1 protease inhibitors
T4 construct: made in house; host or cells: E. coli (pET21b)
Protocol: as §1

HIV-1 protease MDR 769 = biological target: T5, HIV-1 protease MDR 769 (Human immunodeficiency virus type 1 group M subtype B, UniProt P12497, A559V/I542V/I550V/I572V/L498I/L551P/L578M/M524V/M534L/Q495K/V570A); assay: HIV-1 protease inhibition (FRET substrate cleavage), MDR 769; type: biochemical; details: FRET substrate I, 0.1 M sodium acetate, 1.0 M NaCl, 1.0 mM EDTA, 1.0 mM DTT, 10% DMSO, 1 mg/mL BSA, pH 4.7, fluorescence 340/490 nm, read-out: IC50 of HIV-1 protease inhibitors
T5 construct: made in house; host or cells: E. coli (pET21b)
Protocol: as §1

[1] = test system: four MDR protease variants; details: four clinical MDR isolates, enzyme inhibition assays, relative to NL4-3 (WT)
Source text: HIV protease Forster Resonance Energy Transfer (FRET) substrate I used in the IC50 determination and substrate interference was purchased from AnaSpec, Inc. (Fremont, CA, USA). The US FDA-approved HIV-1 protease inhibitors were kindly provided by the NIH AIDS Research and Reference Reagent Program (www.aidsreagent.org). The CA/p2 pseudopeptide with a reduced scissile peptide bond [-ψ(CH2NH)-] was synthesized in the Department of Chemistry, Wayne State University. The nine substrate hepta-peptides were purchase from SynBioSci Corporation, Livermore, CA, USA. […] The IC50 determination was described previously. […] The protease concentration was adjusted to a substrate cleavage velocity of 5 Relative Fluorescence Units (RFU)/min in the absence of regular substrate. […] Upon the addition of the HIV-1 protease, the fluorescent signal emitted through the cleavage of the FRET substrate was recorded using SpectraMax M5 (Molecular Devices, Sunnyvale, CA, USA) at an excitation wavelength of 340 nm and an emission wavelength of 490 nm. The average velocity of FRET substrate cleavage in RFU/min was calculated based on fluorescent signal at 30 time point over 30 min. In the control experiment, the average velocity of FRET substrate cleavage was determined in the absence of regular substrates. […]

SMILES	IC50 (HIV-1 protease MDR 3761) [nM]	IC50 (HIV-1 protease NL4-3) [nM]	IC50 (HIV-1 protease MDR 1385) [nM]	IC50 (HIV-1 protease MDR 807) [nM]	IC50 (HIV-1 protease MDR 769) [nM]	resistance of MDR variants to inhibitors (in words) [1]
COC(=O)N[C@H](C(=O)N[C@@H](Cc1ccccc1)[C@@H](O)CN(Cc1ccc(-c2ccccn2)cc1)NC(=O)[C@@H](NC(=O)OC)C(C)(C)C)C(C)(C)C [ATV, atazanavir]	2.2	0.19	4.6	7.6	2.9	
CC(C)CN(C[C@@H](O)[C@H](Cc1ccccc1)NC(=O)O[C@H]1CCOC1)S(=O)(=O)c1ccc(N)cc1 [APV, amprenavir]	4.1	0.43	3.1	2.9	4.8	
Cc1c(O)cccc1C(=O)N[C@@H](CSc1ccccc1)[C@H](O)CN1C[C@H]2CCCC[C@H]2C[C@H]1C(=O)NC(C)(C)C [NFV, nelfinavir]	430	1.6	230	210	110	
Cc1cccc(C)c1OCC(=O)N[C@@H](Cc1ccccc1)[C@@H](O)C[C@H](Cc1ccccc1)NC(=O)[C@H](C(C)C)N1CCCNC1=O [LPV, lopinavir]						lower relative resistance
CCC[C@@]1(CCc2ccccc2)CC(O)=C([C@H](CC)c2cccc(NS(=O)(=O)c3ccc(C(F)(F)F)cn3)c2)C(=O)O1 [TPV, tipranavir]	0.63	0.24	2.8	0.63	0.65	
